Source: patent US20130267606A1, “USE OF VITAMIN K FOR WEIGHT MAINTENANCE AND WEIGHT CONTROL” (VITAK B.V., priority 2011, published 2013)
Where two headings read alike, the source gives them in different places.

Legend:
[1] = 62.5 mg/kg body weight per day, rats; cited from earlier work
[2] = after 3 years of supplementation, cited from earlier work
[3] = 1 year of supplementation, healthy postmenopausal women; cited from earlier work
adipogenesis = conditions: in vitro; cited from earlier work
[4] = placebo controlled 2-year randomized trial of vitamin K1 on body weight and BMI during and after weight reduction intervention (Example 5); type: in vivo, human; conditions: vitamin K1 1 mg/day
Procedure: 120 apparently healthy but overweight subjects (age range: 35-60 years, 52 men, 68 women) were recruited in a placebo controlled 2-year randomized trial to investigate the influence of vitamin K1 (1 mg/day) on body weight and BMI during and after a 6-month intervention aiming significant weight reduction. At the start of the study participants were randomized to receive either placebo or vitamin K for 24 months. All participants received extensive dietary counselling and were motivated to increase their physical exercise during the first 6 months of the study, with personal contact once weekly. After this initial period, counselling was stopped, but vitamin K/placebo treatment was continued for another 18 months, while participants visited our institute every half year. Inclusion criteria were: apparently healthy, BMI between 25 and 35 kg/m^2, Exclusion criteria were: a medical history or use of drugs known to interfere with vitamin K-, calcium- and/or glucose-metabolism. Body height was measured using a wall-mounted stadiometer. Body weight was measured to the nearest 0.1 kg with participants wearing light clothing and no shoes. Body mass index (BMI) was calculated as body weight (kg) divided by the square of height (m^2). Statistical analysis was performed using the statistical package (SPSS vs 17.0 Corp, Chicago, Ill.).

[5] = placebo controlled 3-year randomized trial of vitamin K2 (MK-7) on body weight and BMI in postmenopausal women (Example 4); type: in vivo, human
Procedure: 250 apparently healthy postmenopausal women (age range: 55-75 years) were recruited in a placebo controlled 3-year randomized trial to investigate the influence of vitamin K2 (MK-7, 180 μg/day) on body weight and BMI. Exclusion criteria were: BMI>30 kg/m^2, a medical history or use of drugs known to interfere with vitamin K-, calcium- and/or glucose-metabolism. Body height was measured using a wall-mounted stadiometer. Body weight was measured to the nearest 0.1 kg with participants wearing light clothing and no shoes. Body mass index (BMI) was calculated as body weight (kg) divided by the square of height (m^2). Statistical analysis was performed using the statistical package (SPSS vs 17.0 Corp, Chicago, Ill.). […] In the unpaired t-test the difference in response to treatment was statistically significant at P<0.005 after 3 years.

[6] = vitamin K2 (MK-7) dose-response study, circulating osteocalcin and adiponectin (Example 2); type: in vivo, human
[7] = placebo controlled randomized 3-year trial of vitamin K2 (MK-4) on BMI and serum markers in postmenopausal women (Example 3); type: in vivo, human; conditions: for serum ucOC / serum cOC: mean±SD
[8] = second phase of the study (18 months)

**Q.** With menaquinone [vitamin K2] as the compound, how does the “effect in animal model for auto-immune disease” value [1] read?
**A.** protective

**Q.** With `CC1=C(C/C=C(\C)CCC[C@H](C)CCC[C@H](C)CCCC(C)C)C(=O)c2ccccc2C1=O` [vitamin K1, phylloquinone] as the compound, how does the “progression of insulin resistance” value ([2]; older men) read?
**A.** reduced

**Q.** And the “progression of insulin resistance” value ([2]; women)?
**A.** not

**Q.** And the glucose metabolism [3]?
**A.** did not alter

**Q.** What about the adipogenesis (adipogenesis) of the same compound?
**A.** not

**Q.** And the “decrease of average body weight and BMI versus placebo” value ([4]; first 6 months with dietary counselling and exercise)?
**A.** non-significant better performance

**Q.** And the “average weight gain versus placebo group” value ([4]; following 18 months (second phase), p<0.05)?
**A.** significantly lower

**Q.** And the “participants returned to their starting weight” value [4, 8]?
**A.** 7 participants

**Q.** And the “participants without significant weight gain” value [4, 8]?
**A.** 28 participants

**Q.** What does the source list for `CC(C)=CCC/C(C)=C/CC/C(C)=C/CC/C(C)=C/CC/C(C)=C/CC/C(C)=C/CC/C(C)=C/CC1=C(C)C(=O)c2ccccc2C1=O` [MK-7]?
**A.** effect on body weight and BMI ([5]; nutritionally relevant intake, MK-7 180 μg/day, 3 years, versus placebo increase): maintenance of body weight and BMI; ucOC/cOC ratio ([6]; MK-7 45-360 μg per day for 12 weeks, effect even at 45 μg/day): significant decrease; circulating ucOC ([6]; MK-7 45-360 μg per day for 12 weeks, effect even at 45 μg/day, healthy men and premenopausal women): significant decrease; circulating adiponectin ([6]; nutritional levels of MK-7, 12 weeks): does not affect

**Q.** With `CC(C)=CCC/C(C)=C/CC/C(C)=C/CC/C(C)=C/CC1=C(C)C(=O)c2ccccc2C1=O` [MK-4] as the compound, how does the BMI ([5]; after 3 years supplementation (180 μg/day), P=0.463) read?
**A.** 25.4±3.0 kg/m^2

**Q.** What about the average body weight ([5]; after 3 years supplementation (180 μg/day), non-significant change) of the same compound?
**A.** 67.4 kg

**Q.** What about the BMI ([5]; baseline, treated group) of the same compound?
**A.** 25.2±2.8 kg/m^2

**Q.** And the average body weight ([5]; baseline, treated group)?
**A.** 66.9 kg

**Q.** And the “UCR (ucOC/cOC ratio)” value ([7]; after 3 years MK-4 45 mg/day)?
**A.** 0.12±0.15

**Q.** What about the “decrease of UCR” value ([7]; after 3 years MK-4 45 mg/day versus baseline, P<0.0001) of the same compound?
**A.** 74±22%

**Q.** And the “serum ucOC” value ([7]; after 3 years MK-4 45 mg/day, P<0.0001)?
**A.** 0.8 ± 1.0 ng/mL

**Q.** And the “serum cOC” value ([7]; after 3 years MK-4 45 mg/day, P=0.046)?
**A.** 6.9 ± 2.3 ng/mL

**Q.** And the circulating adiponectin ([7]; after 3 years MK-4 45 mg/day, no significant difference to placebo (P=0.224))?
**A.** 13.1 ± 8.3 µg/mL

**Q.** What about the BMI ([7]; after 3 years MK-4 45 mg/day, non-significant increase (P=0.463)) of the same compound?
**A.** 27.2±0.3 kg/m^2

**Q.** What about the BMI ([7]; baseline, MK-4 group) of the same compound?
**A.** 27.1±0.3 kg/m^2

**Q.** What about the “UCR (ucOC/cOC ratio)” value ([7]; baseline, MK-4 group) of the same compound?
**A.** 0.54±0.35

**Q.** And the “serum cOC” value ([7]; baseline, MK-4 group)?
**A.** 6.4 ± 2.5 ng/mL

**Q.** What about the “serum ucOC” value ([7]; baseline, MK-4 group) of the same compound?
**A.** 3.2 ± 1.9 ng/mL

**Q.** What about the circulating adiponectin ([7]; baseline, MK-4 group, no significant difference to placebo (P=0.562)) of the same compound?
**A.** 14.2 ± 9.7 µg/mL

**Q.** What about the average body weight ([7]; remained constant over 3 years MK-4 45 mg/day) of the same compound?
**A.** 70.3 ± 0.9 kg

**Q.** And the adipogenesis (adipogenesis)?
**A.** inhibited

**Q.** And the osteoblastic differentiation (adipogenesis)?
**A.** stimulated
